{"source": "patent US8329166B2", "about": "“Pluripotent olfactory stem cells” (Academia Sinica, priority 2005, dated 2012)", "test_system": "SDF-1", "assay": "Western blot of SDF-1 in hypoxia-reoxygenation treated cells pre-treated with pathway inhibitors", "type": "cell-based, human", "details": "pre-treatment 10 μM", "procedure": "Western blot was also performed to examine the expression of SDF-1, G-CSF, CXCR4, and G-CSF-R in the above-described cells that were treated with hypoxia-reoxygenation. Briefly, cells were placed in a hypoxic chamber (Bug Box, Ruskinn Technology, UK) at 37° C. for 12 hours. The chamber was continuously flushed with 95% N2-5% CO2 to maintain a gas phase PO2 of <1 mmHg (OM-14 oxygen monitor; SensorMedics Corporation, Yorba Linda, Calif.). After each hypoxic treatment, the cells were returned to a 37° C. normoxic incubator (95% air-5% CO2) for different time durations (30 minutes, 1 hour, 4 hours, 12 hours, 24 hours, and 48 hours) of reoxygenation. Cell samples were then collected at each time point and stored at -80° C. For Western blot, the samples were lysed in a buffer containing 320 mM sucrose, 5 mM HEPES, 1 μg/ml leupeptin, 1 μg/ml aprotinin. The resulting lysate were centrifuged at 13,000 g for 15 minutes. The pellet was resuspended in a sample buffer (62.5 mM Tris-HCl, 10% glycerol, 2% SDS, 0.1% bromophenol blue, and 50 mM DTT) and subjected to SDS-polyacrylamide gel (4-12%) electrophoresis. […] The intensity of each detected band was quantified using a Kodak Digital Science 1D Image Analysis System (Eastman Kodak, Rochester, N.Y.). […]"}
{"smiles": "COc1cccc(-c2cc(=O)c3ccccc3o2)c1N", "note": "[PD98059]", "values": [{"measurement": "expression of SDF-1", "result": "stayed at the control level"}]}
